Laboratory results as given in ChEMBL document CHEMBL4507292 (2021).

Columns and labels:
[1] = molecular target: Epidermal growth factor receptor (Homo sapiens, UniProt P00533); assay: Inhibition of Epidermal Growth Factor (EGF) at 10 µM in the Eurofins-Panlabs radioligand binding assay (Eurofins_assay_225510)
[2] = molecular target: Synaptic vesicular amine transporter (Homo sapiens) (UniProt Q05940); conditions: Oryctolagus cuniculus
[3] = molecular target: Prostaglandin E2 receptor EP3 subtype (Homo sapiens, UniProt P43115); assay: (§1) Prostanoid EP3 Eurofins-Panlabs radioligand binding assay; set-up: ligand concentration 0.5 nM, non-specific ligand with concentration 10 µM Prostaglandin EŽ2 (PGE2), incubation time 60 min, incubation temperature 25 °C
[4] = molecular target: T1, Prostaglandin E2 receptor EP3 subtype (Homo sapiens) (UniProt P43115); assay: as §1; set-up: ligand concentration 0.5 nM, non-specific ligand with concentration 10 µM Prostaglandin EŽ2 (PGE2), incubation time 60 min, incubation temperature 25 °C
T1 sequence (whole entry): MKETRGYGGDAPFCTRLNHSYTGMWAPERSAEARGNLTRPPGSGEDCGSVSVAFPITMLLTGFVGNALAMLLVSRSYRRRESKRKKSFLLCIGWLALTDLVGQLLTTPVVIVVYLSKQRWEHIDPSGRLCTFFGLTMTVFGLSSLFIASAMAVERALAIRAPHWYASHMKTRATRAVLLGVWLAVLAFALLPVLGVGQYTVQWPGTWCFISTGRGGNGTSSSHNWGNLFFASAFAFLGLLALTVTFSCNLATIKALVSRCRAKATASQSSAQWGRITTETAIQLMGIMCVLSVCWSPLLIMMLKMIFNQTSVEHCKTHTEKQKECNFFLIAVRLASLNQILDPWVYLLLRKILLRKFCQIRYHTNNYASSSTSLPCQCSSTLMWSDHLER

[5] = molecular target: L-type calcium channel, dihydropyridine site (Cav1.2 alpha-1C) (Homo sapiens, UniProt Q13936); assay: Inhibition of Calcium Channel L-Type, Dihydropyridine at 10 µM in the Eurofins-Panlabs radioligand binding assay (Eurofins_assay_214600); set-up: ligand concentration 0.1 nM, non-specific ligand with concentration 1 µM Nitrendipine, incubation time 90 min, incubation temperature 25 °C; conditions: Wistar, rat, rat cerebral cortex preparation, probe [3H] Nitrendipine, 0.1 nM; compound concentration 10 uM; target entry is the homologue from another species
Rattus norvegicus [6] = organism: Rattus norvegicus; conditions: Compound concentration 10.0 uM
[7] = molecular target: T2, 5-hydroxytryptamine receptor 1A (Homo sapiens) (UniProt P08908)
T2 sequence (whole entry): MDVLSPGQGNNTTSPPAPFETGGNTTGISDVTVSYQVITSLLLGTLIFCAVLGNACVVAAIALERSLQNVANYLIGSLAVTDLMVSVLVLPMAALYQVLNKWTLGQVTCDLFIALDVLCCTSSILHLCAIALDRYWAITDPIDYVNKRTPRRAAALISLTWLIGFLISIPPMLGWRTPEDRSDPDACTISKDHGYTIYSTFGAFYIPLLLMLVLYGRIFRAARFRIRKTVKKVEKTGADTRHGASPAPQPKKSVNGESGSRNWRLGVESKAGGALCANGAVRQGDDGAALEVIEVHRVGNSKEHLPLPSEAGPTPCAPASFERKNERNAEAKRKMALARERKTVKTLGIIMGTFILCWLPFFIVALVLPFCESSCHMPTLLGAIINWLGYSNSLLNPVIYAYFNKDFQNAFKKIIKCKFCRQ

[8] = molecular target: Mitogen-activated protein kinase 14 (Homo sapiens, UniProt Q16539); assay: NanoBRET (SGC Frankfurt) (MAPK14)
Mitogen-activated protein kinase 14, sequence (Q16539 whole entry): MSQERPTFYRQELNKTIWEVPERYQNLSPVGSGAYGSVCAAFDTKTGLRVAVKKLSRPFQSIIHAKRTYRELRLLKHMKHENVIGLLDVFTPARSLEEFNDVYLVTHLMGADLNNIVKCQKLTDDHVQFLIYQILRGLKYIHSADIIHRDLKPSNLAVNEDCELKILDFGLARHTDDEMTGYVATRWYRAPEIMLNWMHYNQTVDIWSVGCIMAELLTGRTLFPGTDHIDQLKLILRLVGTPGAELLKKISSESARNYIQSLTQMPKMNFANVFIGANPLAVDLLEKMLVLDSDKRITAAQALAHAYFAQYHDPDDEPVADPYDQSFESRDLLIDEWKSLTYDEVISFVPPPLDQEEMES

[9] = molecular target: Alpha-2A adrenergic receptor (Homo sapiens, UniProt P08913); assay: (§2) Adrenergic alpha2A Eurofins-Panlabs radioligand binding assay; set-up: ligand concentration 1 nM, non-specific ligand with concentration 10 µM WB-4101, incubation time 60 min, incubation temperature 25 °C
[10] = molecular target: T3, Alpha-2A adrenergic receptor (Homo sapiens) (UniProt P08913); assay: as §2; set-up: ligand concentration 1 nM, non-specific ligand with concentration 10 µM WB-4101, incubation time 60 min, incubation temperature 25 °C
T3 sequence (whole entry): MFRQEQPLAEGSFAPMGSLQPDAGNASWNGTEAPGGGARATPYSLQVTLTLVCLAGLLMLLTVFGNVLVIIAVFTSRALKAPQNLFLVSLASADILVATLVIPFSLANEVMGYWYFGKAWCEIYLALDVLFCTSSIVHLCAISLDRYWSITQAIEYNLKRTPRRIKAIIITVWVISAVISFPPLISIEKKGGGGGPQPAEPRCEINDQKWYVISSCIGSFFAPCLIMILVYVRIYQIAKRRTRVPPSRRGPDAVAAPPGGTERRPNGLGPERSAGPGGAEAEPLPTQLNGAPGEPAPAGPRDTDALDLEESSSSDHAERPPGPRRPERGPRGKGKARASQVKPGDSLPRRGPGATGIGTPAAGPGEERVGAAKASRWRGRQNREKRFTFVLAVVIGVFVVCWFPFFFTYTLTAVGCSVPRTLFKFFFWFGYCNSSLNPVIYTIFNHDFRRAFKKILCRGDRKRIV

[11] = molecular target: Peroxisome proliferator-activated receptor alpha (Homo sapiens) (UniProt Q07869); assay: PPARalpha Eurofins-Panlabs radioligand binding assay; conditions: Compound concentration 10.0 uM
Peroxisome proliferator-activated receptor alpha (Homo sapiens), sequence (Q07869 whole entry): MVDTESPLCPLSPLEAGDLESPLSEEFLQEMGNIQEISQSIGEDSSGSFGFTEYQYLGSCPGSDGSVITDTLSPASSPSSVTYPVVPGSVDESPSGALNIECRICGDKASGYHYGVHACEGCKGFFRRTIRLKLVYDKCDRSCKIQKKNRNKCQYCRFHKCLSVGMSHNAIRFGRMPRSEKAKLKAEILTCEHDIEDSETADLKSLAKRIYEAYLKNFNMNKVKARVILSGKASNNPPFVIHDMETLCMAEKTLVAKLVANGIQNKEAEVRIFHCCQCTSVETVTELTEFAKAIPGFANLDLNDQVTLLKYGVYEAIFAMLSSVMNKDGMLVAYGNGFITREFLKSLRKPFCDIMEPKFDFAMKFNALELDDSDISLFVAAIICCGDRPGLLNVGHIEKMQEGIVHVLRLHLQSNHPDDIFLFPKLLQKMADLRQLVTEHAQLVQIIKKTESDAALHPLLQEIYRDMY

[12] = molecular target: Melanocortin receptor 3 (Homo sapiens) (UniProt P41968); assay: Inhibition of Melanocortin MC3 at 10 µM in the Eurofins-Panlabs radioligand binding assay (Eurofins_assay_251300); set-up: ligand concentration 0.035 nM; conditions: Compound concentration 10.0 uM
Melanocortin receptor 3 (Homo sapiens), sequence (P41968 whole entry): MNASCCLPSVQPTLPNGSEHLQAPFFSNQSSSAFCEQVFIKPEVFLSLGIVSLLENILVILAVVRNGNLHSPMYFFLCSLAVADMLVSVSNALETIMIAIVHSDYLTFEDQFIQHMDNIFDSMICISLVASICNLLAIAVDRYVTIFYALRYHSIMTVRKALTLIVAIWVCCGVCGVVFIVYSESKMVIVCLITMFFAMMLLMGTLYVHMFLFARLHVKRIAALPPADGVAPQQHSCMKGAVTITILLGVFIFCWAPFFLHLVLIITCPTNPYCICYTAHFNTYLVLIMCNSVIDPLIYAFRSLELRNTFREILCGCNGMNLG

Homo sapiens = organism: Homo sapiens; assay: (§3) Protein Serine/Threonine Kinase, MAPK14 (p38α) Eurofins-Panlabs enzyme assay; set-up: substrate with concentration 10 µg/mL Myelin Basic Protein (MBP), incubation time 60 min, incubation temperature 25 °C
[13] = as §3; set-up: species or system Homo sapiens; substrate with concentration 10 µg/mL Myelin Basic Protein (MBP), incubation time 60 min, incubation temperature 25 °C
[14] = molecular target: Cholecystokinin receptor type A (Homo sapiens) (UniProt P32238); assay: Inhibition of Cholecystokinin CCK1 (CCKA) at 10 µM in the Eurofins-Panlabs radioligand binding assay (Eurofins_assay_218020)
Cholecystokinin receptor type A (Homo sapiens), sequence (P32238 whole entry): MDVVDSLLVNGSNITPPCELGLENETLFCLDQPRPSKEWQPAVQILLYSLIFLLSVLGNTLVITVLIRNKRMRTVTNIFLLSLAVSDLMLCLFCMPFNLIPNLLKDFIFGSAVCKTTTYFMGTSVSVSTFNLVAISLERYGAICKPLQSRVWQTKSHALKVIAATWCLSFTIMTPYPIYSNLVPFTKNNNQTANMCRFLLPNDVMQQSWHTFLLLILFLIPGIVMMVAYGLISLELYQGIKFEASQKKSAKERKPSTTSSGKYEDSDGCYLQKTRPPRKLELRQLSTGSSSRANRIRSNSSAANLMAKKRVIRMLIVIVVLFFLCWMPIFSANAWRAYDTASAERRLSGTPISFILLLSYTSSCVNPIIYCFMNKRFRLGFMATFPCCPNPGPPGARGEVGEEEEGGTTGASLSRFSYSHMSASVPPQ

Rattus norvegicus [15] = organism: Rattus norvegicus; assay: Serotonin (5-Hydroxytryptamine) 5-HT1, Non-Selective Eurofins-Panlabs radioligand binding assay; type: protein assay; conditions: concentration not given here
[16] = molecular target: Endothelin-converting enzyme 1 (Homo sapiens) (UniProt P42892); assay: Peptidase, Endothelin Converting Enzyme-1 (ECE-1) Eurofins-Panlabs enzyme assay; conditions: Compound concentration 10.0 uM
Endothelin-converting enzyme 1 (Homo sapiens), sequence (P42892 whole entry): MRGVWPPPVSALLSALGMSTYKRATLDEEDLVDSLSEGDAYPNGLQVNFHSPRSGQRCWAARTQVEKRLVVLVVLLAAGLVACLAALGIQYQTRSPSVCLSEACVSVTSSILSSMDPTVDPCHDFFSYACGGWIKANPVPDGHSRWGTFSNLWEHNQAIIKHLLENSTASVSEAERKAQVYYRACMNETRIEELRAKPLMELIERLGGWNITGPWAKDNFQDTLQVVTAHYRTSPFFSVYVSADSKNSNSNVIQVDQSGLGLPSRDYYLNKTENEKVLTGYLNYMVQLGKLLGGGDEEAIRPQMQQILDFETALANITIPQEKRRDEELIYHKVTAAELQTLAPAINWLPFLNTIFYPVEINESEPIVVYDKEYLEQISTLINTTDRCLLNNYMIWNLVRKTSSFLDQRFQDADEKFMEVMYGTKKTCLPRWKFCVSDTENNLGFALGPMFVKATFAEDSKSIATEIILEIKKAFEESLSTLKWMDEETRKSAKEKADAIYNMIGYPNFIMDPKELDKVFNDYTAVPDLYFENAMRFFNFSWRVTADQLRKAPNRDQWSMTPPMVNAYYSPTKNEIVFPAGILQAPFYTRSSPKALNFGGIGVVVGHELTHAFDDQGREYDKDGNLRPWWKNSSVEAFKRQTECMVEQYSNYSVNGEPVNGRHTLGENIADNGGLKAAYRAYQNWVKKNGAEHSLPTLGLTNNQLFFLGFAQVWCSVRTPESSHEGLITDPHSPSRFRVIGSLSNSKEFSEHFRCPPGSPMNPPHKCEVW

[17] = molecular target: Glutamate receptor ionotropic, kainate (Rattus norvegicus) (UniProt P22756+Q01812+P42260+P42264+Q63273); assay: Inhibition of Glutamate, Kainate at 10 µM in the Eurofins-Panlabs radioligand binding assay (Eurofins_assay_232700); conditions: Compound concentration 10.0 uM
[18] = molecular target: Mu-type opioid receptor (Homo sapiens) (UniProt P35372); conditions: Compound concentration 10.0 uM
Mu-type opioid receptor (Homo sapiens), sequence (P35372 whole entry): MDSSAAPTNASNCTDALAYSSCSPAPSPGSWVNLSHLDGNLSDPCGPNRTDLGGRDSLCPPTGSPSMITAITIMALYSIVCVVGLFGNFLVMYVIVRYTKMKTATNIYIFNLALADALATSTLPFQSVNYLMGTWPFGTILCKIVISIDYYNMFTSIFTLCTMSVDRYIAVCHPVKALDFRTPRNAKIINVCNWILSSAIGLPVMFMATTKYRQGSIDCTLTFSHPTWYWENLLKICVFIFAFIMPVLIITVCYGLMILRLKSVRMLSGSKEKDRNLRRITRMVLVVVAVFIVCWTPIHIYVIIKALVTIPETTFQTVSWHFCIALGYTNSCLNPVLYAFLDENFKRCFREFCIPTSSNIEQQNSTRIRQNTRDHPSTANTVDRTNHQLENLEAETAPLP

Synaptic vesicular amine transporter (Homo sapiens), sequence (Q05940 whole entry): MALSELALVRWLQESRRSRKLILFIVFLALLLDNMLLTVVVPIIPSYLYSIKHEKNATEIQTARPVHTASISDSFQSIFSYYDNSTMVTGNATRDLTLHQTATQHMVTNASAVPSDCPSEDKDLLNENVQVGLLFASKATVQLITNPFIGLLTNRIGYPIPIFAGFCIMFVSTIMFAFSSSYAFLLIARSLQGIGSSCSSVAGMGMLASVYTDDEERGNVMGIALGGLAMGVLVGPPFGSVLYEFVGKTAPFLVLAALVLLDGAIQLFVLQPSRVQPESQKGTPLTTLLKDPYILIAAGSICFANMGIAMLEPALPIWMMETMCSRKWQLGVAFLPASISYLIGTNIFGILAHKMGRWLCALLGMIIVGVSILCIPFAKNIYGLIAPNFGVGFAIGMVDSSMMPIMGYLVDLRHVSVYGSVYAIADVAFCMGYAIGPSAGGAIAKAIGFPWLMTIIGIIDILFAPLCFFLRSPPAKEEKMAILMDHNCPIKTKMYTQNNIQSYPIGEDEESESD
Epidermal growth factor receptor, sequence (P00533 whole entry): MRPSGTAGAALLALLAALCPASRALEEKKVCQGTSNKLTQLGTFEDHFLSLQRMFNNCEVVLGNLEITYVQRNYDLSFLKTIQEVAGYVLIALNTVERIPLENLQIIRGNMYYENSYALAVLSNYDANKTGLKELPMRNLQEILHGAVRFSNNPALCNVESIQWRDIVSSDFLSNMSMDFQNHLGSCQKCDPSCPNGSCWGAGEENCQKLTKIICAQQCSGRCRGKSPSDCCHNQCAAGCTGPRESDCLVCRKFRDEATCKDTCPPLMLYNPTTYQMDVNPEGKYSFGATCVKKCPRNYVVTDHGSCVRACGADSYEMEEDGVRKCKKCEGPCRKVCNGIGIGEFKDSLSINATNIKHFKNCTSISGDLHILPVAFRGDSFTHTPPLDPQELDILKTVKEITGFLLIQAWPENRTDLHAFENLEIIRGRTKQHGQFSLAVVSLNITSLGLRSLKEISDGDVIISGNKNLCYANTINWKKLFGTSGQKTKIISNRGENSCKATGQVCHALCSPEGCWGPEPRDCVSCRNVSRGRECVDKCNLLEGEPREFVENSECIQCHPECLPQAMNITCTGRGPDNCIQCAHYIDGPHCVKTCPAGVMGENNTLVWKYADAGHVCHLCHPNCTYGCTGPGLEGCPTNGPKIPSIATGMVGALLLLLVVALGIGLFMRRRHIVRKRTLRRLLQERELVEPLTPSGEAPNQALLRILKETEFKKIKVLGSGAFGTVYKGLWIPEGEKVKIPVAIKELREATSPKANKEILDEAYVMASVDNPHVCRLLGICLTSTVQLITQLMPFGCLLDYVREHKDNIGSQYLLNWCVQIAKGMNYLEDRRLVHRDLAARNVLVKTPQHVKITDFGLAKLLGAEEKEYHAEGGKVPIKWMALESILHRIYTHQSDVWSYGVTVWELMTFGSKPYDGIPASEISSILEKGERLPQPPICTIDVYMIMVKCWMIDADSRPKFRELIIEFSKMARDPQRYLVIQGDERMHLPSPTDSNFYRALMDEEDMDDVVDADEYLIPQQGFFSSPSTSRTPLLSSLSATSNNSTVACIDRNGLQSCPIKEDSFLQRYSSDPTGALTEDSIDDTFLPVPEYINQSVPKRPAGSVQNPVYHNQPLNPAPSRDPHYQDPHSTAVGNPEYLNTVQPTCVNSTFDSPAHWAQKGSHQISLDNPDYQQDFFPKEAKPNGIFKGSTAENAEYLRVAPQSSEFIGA

**Q.** With O=C(O)c1cc(-c2ccc(C3CCNCC3)cc2)c2ccc(-c3ccc(C(F)(F)F)cc3)cc2c1 [PPTN] as the compound, how does the inhibition [1] read?
**A.** Its inhibition is 35%.

**Q.** What about the inhibition ([2]; Compound concentration 0.01 uM) of the same compound?
**A.** Its inhibition is -8%.

**Q.** What about the inhibition ([2]; Compound concentration 0.1 uM) of the same compound?
**A.** Its inhibition is 8%.

**Q.** And the inhibition ([2]; Compound concentration 1.0 uM)?
**A.** The inhibition was 41%.

**Q.** What about the inhibition ([2]; Compound concentration 10.0 uM) of the same compound?
**A.** The inhibition was 59%.

**Q.** And the IC50 [3]?
**A.** The IC50 was 9.27 µM.

**Q.** And the inhibition ([4]; Compound concentration 0.01 uM)?
**A.** Its inhibition is 11%.

**Q.** What about the inhibition ([4]; Compound concentration 0.1 uM) of the same compound?
**A.** Its inhibition is 14%.

**Q.** What about the inhibition ([4]; Compound concentration 1.0 uM) of the same compound?
**A.** The inhibition was 4%.

**Q.** What about the inhibition ([4]; Compound concentration 10.0 uM) of the same compound?
**A.** Its inhibition is 53%.

**Q.** What about the inhibition at 90 min, 10 µM [5] of the same compound?
**A.** Its inhibition at 90 min, 10 µM is 20% (not active).

**Q.** And the inhibition (Rattus norvegicus [6])?
**A.** The inhibition was 3%.

**Q.** And the inhibition ([7]; Compound concentration 0.01 uM)?
**A.** The inhibition was 0%.

**Q.** What about the inhibition ([7]; Compound concentration 0.1 uM) of the same compound?
**A.** The inhibition was -2%.

**Q.** And the inhibition ([7]; Compound concentration 1.0 uM)?
**A.** The inhibition was 4%.

**Q.** And the inhibition ([7]; Compound concentration 10.0 uM)?
**A.** Its inhibition is 64%.

**Q.** What about the IC50 [8] of the same compound?
**A.** Its IC50 is > 20 µM (not active).

**Q.** What about the IC50 [9] of the same compound?
**A.** Its IC50 is 4.07 µM.

**Q.** And the Ki [9]?
**A.** Its Ki is 1.53 µM.

**Q.** What about the inhibition ([10]; Compound concentration 0.01 uM) of the same compound?
**A.** Its inhibition is 9%.

**Q.** What about the inhibition ([10]; Compound concentration 0.1 uM) of the same compound?
**A.** Its inhibition is 13%.

**Q.** What about the inhibition ([10]; Compound concentration 1.0 uM) of the same compound?
**A.** Its inhibition is 11%.

**Q.** And the inhibition ([10]; Compound concentration 10.0 uM)?
**A.** Its inhibition is 78%.

**Q.** And the inhibition [11]?
**A.** The inhibition was 15%.

**Q.** What about the inhibition [12] of the same compound?
**A.** Its inhibition is 34%.

**Q.** And the inhibition (Homo sapiens; Compound concentration 0.01 uM)?
**A.** Its inhibition is 9%.

**Q.** What about the inhibition (Homo sapiens; Compound concentration 0.1 uM) of the same compound?
**A.** Its inhibition is 0%.

**Q.** What about the inhibition (Homo sapiens; Compound concentration 1.0 uM) of the same compound?
**A.** Its inhibition is -7%.

**Q.** What about the IC50 [13] of the same compound?
**A.** The IC50 was 0.00294 µM.

**Q.** And the inhibition [14]?
**A.** Its inhibition is 10%.

**Q.** What about the inhibition (Rattus norvegicus [15]) of the same compound?
**A.** The inhibition was 5%.

**Q.** And the inhibition [16]?
**A.** The inhibition was 12%.

**Q.** What about the inhibition [17] of the same compound?
**A.** Its inhibition is -1%.

**Q.** What about the inhibition [18] of the same compound?
**A.** The inhibition was -1%.
